Laboratory results from ChEMBL document CHEMBL1155683, “Dolastatin 3 and two novel cyclic peptides from a palauan collection of Lyngbya majuscula” (J Nat Prod, 2000).
pIC50: −log10 of the molar value. Activity calls are given as the source filed them. The calls are words filed in the database; no cut-off is given here.

What was measured:
[1] = molecular target: Human immunodeficiency virus type 1 integrase (Human immunodeficiency virus 1) (UniProt Q7ZJM1); assay: Inhibition of HIV1 integrase strand transfer activity at […]
Sequence of Human immunodeficiency virus type 1 integrase (Human immunodeficiency virus 1) (Q7ZJM1 as listed by the source): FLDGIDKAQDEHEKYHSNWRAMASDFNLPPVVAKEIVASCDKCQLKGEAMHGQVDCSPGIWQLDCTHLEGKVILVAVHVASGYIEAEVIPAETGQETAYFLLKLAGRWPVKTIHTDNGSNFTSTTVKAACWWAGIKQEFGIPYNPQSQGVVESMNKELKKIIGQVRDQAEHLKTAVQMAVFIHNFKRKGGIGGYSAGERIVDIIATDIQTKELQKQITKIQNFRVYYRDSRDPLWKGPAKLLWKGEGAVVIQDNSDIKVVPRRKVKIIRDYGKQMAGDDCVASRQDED

[2] = molecular target: Human immunodeficiency virus type 1 integrase (Human immunodeficiency virus 1) (UniProt Q7ZJM1); assay: Inhibition of HIV1 integrase long terminal repeat cleavage activity at […]
[3] = molecular target: T1, Human immunodeficiency virus type 1 integrase (Human immunodeficiency virus 1, UniProt Q7ZJM1); assay: Inhibition of HIV1 integrase long terminal repeat cleavage activity
T1 sequence (Q7ZJM1 whole entry): as the sequence (Q7ZJM1 as listed by the source) above

[4] = molecular target: T1, Human immunodeficiency virus type 1 integrase; assay: Inhibition of HIV1 integrase strand transfer activity

With `CCC(C)[C@@H]1NC(=O)c2csc(n2)CNC(=O)c2csc(n2)[C@H](CCC(N)=O)NC(=O)[C@H](CC(C)C)NC(=O)[C@@H]2CCCN2C1=O` (some centres undefined) the Activity [1] was “inactive” and the Activity [2] was “inactive”.

`CC(C)C[C@@H]1NC(=O)[C@@H]2CCCN2C(=O)[C@H](C(C)C)NC(=O)c2csc(n2)CNC(=O)c2csc(n2)[C@H](CCC(N)=O)NC1=O` [DOLASTATIN 3] was tested, and the pIC50 [3] was 2.30 and the pIC50 [4] was 2.39.
